Measurements as given in patent publication US20140235643A1, “NOVEL QUINOXALINE INHIBITORS OF PI3K” (GILEAD CALISTOGA LLC, priority 2011, published 2014).

Assays:
PI3Kβ (p110β/p85α) = molecular target: T1, PI3Kβ (p110β/p85α) (Homo sapiens, UniProt P42338); assay: PI3K biochemical enzyme assay (Adapta universal kinase assay), p110 beta/p85 alpha; details: for inhibition at 10 µM: read-out: PI3Kβ % inhib; for IC50: Table 1, lower part, read-out: PI3Kβ IC50
T1 construct: purchased Invitrogen
Method: (§1) This example describes a method of obtaining in vitro activity data concerning the effect of compounds of on various PI3K isoforms. The effect of compounds on the kinase activity of Class I PI3Ks was measured at Invitrogen by using the Adapta® universal kinase assay. It was a homogenous, fluorescent based immunoassay for the detection of ADP produced by the kinase reaction. This assay can be divided into two phases: a kinase reaction phase, and an ADP detection phase. In the kinase reaction phase, all components required for the kinase reaction were added to the well, and the reaction was allowed to incubate for 60 minutes. After the reaction, a detection solution consisting of a europium labeled anti-ADP antibody, an Alexa Fluor® 647 labeled ADP tracer, and EDTA (to stop the kinase reaction) was added to the assay well. ADP formed by the kinase reaction (in the absence of an inhibitor) displaced the Alexa Fluor® 647 labeled ADP tracer from the antibody, resulting in a decrease in the TR-FRET signal.
(§2) ADP formation was determined by calculating the emission ratio from the assay well. The emission ratio was calculated by dividing the intensity of the tracer (acceptor) emission by the intensity of the Eu (donor) emission at 615 nm as shown in the equation below.
(§3) The Test Compounds were screened in 1% DMSO (final) in the well. All Substrate/Kinase Mixtures were diluted to a 2× working concentration in the appropriate Kinase Buffer as described below for the individual kinase:
The 2× p 110beta/p85 alpha/PIP2:PS mixture was prepared in 50 mM HEPES pH 7.5, 100 mM NaCl, 0.03% CHAPS, 1 mM EGTA, 3 mM mgCl2, and 2 mM DTT. The final 10 μL Kinase Reaction consisted of 35.4 ng p110 beta/p85 alpha and 50 μM PIP2:PS. After the 1 hour Kinase Reaction incubation, 5 μL of Detection Mix was added.
(§4) The Detection mix consisted of EDTA (30 mM), Eu-anti-ADP antibody (30 nM) and ADP tracer. All ATP Solutions were diluted to a 4× working concentration in water and used at the Km apparent concentrations for each individual kinase.

PI3Kα = molecular target: T2, PI3Kα (Mus musculus, UniProt P42337); assay: PI3Kα-dependent cell-based assay: PDGF-BB mediated AKT phosphorylation in Swiss-3T3 cells; details: PDGF-BB-induced AKT phosphorylation, Swiss-3T3 fibroblasts
T2 construct: endogenous in cells; host or cells: Swiss-3T3 fibroblasts (ATCC)
T2 sequence (P42337 whole entry): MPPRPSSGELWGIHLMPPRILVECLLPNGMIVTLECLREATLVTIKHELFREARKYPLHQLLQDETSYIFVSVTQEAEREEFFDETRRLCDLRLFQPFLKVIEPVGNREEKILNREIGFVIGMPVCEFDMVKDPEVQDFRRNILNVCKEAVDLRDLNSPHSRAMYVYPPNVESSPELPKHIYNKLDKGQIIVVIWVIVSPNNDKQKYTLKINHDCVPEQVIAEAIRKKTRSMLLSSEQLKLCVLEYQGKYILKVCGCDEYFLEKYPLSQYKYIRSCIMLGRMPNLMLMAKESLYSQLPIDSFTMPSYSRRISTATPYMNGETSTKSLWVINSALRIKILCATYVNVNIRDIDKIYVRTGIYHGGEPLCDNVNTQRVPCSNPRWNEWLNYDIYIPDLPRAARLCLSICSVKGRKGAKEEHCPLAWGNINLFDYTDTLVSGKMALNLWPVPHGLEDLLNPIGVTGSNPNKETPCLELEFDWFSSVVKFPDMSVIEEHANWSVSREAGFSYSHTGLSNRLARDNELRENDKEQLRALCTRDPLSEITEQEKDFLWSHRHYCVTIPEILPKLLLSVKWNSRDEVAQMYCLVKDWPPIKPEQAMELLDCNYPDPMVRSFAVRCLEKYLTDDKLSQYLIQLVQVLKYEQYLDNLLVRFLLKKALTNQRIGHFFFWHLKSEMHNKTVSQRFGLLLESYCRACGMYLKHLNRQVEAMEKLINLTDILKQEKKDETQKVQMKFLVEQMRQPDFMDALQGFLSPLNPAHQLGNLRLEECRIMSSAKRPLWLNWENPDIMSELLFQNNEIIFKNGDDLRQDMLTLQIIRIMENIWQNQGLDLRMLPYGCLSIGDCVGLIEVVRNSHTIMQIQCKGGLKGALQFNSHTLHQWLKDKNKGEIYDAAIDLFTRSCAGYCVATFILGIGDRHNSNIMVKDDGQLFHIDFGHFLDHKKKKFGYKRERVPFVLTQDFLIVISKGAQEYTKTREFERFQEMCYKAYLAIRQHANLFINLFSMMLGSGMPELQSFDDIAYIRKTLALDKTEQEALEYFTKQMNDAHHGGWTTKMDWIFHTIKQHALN
T2 sequence (P26450 whole entry partner): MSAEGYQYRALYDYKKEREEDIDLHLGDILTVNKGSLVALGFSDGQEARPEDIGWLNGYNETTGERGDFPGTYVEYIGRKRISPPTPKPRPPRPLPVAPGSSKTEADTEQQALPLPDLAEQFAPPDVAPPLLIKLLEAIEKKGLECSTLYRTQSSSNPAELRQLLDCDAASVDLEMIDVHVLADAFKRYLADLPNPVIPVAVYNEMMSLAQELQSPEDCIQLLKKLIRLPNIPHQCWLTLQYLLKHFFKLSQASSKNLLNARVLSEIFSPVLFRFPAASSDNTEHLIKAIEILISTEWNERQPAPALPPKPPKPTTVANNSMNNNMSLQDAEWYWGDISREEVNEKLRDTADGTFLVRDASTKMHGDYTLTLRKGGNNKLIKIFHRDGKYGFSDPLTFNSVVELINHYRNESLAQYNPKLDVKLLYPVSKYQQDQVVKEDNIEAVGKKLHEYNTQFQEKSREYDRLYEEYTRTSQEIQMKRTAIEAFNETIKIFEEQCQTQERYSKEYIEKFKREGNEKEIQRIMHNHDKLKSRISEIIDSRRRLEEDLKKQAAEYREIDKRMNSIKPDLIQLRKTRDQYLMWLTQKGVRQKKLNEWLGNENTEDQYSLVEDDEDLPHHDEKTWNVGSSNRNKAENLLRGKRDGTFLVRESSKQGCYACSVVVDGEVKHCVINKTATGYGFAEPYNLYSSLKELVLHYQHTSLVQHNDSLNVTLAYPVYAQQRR
Method: (§5) PDGF-BB-induced AKT phosphorylation in Swiss-3T3 fibroblasts is mediated by p110α. C5a-induced AKT phosphorylation in RAW-264 murine macrophages is mediated exclusively by p110γ.
PI3Kα-Dependent Cell-Based Assay: PDGF-BB Mediated AKT Phosphorylation in Swiss-3T3 Cells
Swiss-3T3 fibroblasts (American Type Culture Collection) were cultured with DMEM containing 10% fetal bovine serum and the antibiotics penicillin and streptomycin. Cells were seeded on a 96-well Tissue Culture Plate at 25,000 cells/well and allowed to reach at least 90% confluency. The cells were starved for 2 to 12 hr in 0.1% FBS containing medium and then were pretreated with inhibitors or DMSO for 2 hr. The cells were stimulated for 15 min with 10 ng/ml PDGF-BB (Cell Signaling Technology) at 37° C. in 5% CO2. The culture medium was removed and cells were fixed for 20 min at room temperature by addition of 100 μl of 4% cell fixing buffer to each well. AKT phosphorylation and total AKT was detected by ELISA.
(§6) Detection of Phospho-Ser-473 AKT and Total AKT by ELISA
(§7) The fixed cells were washed twice with 150 μl of wash buffer (WB) and quenched by incubating with 100 μl of Quenching Buffer for 20 min at room temperature. Cells were washed once with 150 μl WB and blocked by incubating with 100 μl of Blocking Buffer for 1 hr at room temperature. Cells were incubated with 50 μl of primary antibody diluted in Blocking Buffer, either phospho-Ser-473 AKT specific (1:150 dilution) or total-AKT antibody (1:200 dilution), to each specific well. The negative control wells contained 50 μl of Blocking Buffer. Plates were sealed with plate sealing film and incubated overnight at 4° C. Cells were washed twice with 150 μl WB followed by addition of 50 μl per well of DELFIA secondary antibody (50 ng/well, diluted in DELFIA Assay Buffer). After 2 hr incubation at room temperature, cells were washed 4 times with 150 μl of Europium Wash Solution followed by addition of 100 μl of DELFIA Enhancing Solution to each well. Plates were incubated for 5 min in the dark and fluorescent signal was read using SpectraMax M5™ (Molecular Devices). Total AKT level was determined to verify equal cell number per well. The average background fluorescence values from wells that received vehicle control in the absence of PDGF-BB or C5a were subtracted from all the values of experimental conditions. Fluorescence values corresponding to phosphorylated AKT from wells that received PDGF-BB or C5a were normalized to 100% and compound effect was plotted as % change relative to the vehicle control.

PI3Kγ (p110 gamma) = molecular target: T3, PI3Kγ (p110 gamma) (Homo sapiens, UniProt P48736); assay: PI3K biochemical enzyme assay (Adapta universal kinase assay), p110 gamma; details: for inhibition at 1 µM / inhibition at 10 µM: read-out: PI3Kγ % inhib; for IC50: Table 1, lower part, read-out: PI3Kγ IC50; for increase in gamma potency compared to analog without amino substituent on the purine ring: Q17 vs Q16, Q15 vs Q14
T3 construct: purchased Invitrogen
T3 sequence (P48736 whole entry): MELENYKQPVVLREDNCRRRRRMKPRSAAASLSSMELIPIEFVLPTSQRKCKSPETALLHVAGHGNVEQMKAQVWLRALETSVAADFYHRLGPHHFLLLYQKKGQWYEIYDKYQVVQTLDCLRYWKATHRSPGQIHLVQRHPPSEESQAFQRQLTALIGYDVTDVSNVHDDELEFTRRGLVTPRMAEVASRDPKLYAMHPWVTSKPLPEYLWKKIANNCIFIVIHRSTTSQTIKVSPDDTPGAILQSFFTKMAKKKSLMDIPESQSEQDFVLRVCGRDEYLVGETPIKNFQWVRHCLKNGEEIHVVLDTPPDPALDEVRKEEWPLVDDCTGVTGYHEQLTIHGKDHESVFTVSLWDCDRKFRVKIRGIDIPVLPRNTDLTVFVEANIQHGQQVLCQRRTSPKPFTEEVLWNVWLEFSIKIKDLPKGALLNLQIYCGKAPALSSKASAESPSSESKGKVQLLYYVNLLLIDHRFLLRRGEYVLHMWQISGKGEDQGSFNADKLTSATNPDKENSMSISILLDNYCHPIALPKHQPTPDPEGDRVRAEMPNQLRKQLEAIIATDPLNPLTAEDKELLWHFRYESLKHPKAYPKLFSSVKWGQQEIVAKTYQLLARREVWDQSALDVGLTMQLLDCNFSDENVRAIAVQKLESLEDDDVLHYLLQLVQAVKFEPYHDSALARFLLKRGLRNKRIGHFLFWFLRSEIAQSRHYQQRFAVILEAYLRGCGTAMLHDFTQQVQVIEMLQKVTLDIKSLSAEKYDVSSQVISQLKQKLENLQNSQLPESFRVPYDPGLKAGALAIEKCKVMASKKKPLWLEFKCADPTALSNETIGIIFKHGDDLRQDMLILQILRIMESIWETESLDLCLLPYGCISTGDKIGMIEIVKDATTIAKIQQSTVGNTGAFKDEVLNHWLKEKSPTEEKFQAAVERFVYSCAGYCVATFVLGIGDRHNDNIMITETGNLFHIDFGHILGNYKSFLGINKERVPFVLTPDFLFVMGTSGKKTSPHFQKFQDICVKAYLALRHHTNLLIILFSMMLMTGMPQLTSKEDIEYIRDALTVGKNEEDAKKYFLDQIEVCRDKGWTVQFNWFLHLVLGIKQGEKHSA
Method: as §1, §2, §3
The 2× p110 gamma/PIP2:PS mixture was prepared in 50 mM HEPES pH 7.5, 1 mM EGTA, 3 mM mgCl2. The final […] Kinase Reaction consisted of 3.5-26 ng p110 gamma and 50 μM PIP2:PS in 32.5 mM HEPES pH 7.5, 0.5 mM EGTA, 1.5 mM mgCl2. After the 1 hour Kinase Reaction incubation, 5 μL of Detection Mix was added.
as §4

PI3Kγ = molecular target: T4, PI3Kγ (Mus musculus, UniProt Q9JHG7); assay: PI3Kγ-dependent cell-based assay: C5a-mediated AKT phosphorylation in RAW-264 cells; design: species or system murine; details: C5a-induced AKT phosphorylation, RAW-264 macrophages
T4 construct: endogenous in cells; host or cells: RAW-264 macrophage cells (ATCC)
Method: as §5
PI3Kγ-Dependent Cell-Based Assay: C5a-Mediated AKT Phosphorylation in RAW-264 Cells
RAW-264 macrophage cells (American Type Culture Collection) were cultured with Dulbecco's modified Eagle medium (DMEM) containing 10% fetal bovine serum and the antibiotics penicillin and streptomycin. Cells were seeded on a 96-well Tissue Culture Plate at 100,000 to 200,000 cells/well the day before the experiment. Next day, cells were starved for 2 hr in 0.1% FBS containing medium. The cells were pretreated with inhibitors or DMSO for 2 hr and stimulated for 5 min with 75 ng/ml C5a (R&D) at 37° C. in 5% CO2. The culture medium was removed and cells were fixed for 20 min at room temperature by addition of 100 μl of 4% cell fixing buffer to each well. AKT phosphorylation and total AKT was detected by ELISA.
as §6, §7

PI3Kα (p110α/p85α) = molecular target: T5, PI3Kα (p110α/p85α) (Homo sapiens, UniProt P42336); assay: PI3K biochemical enzyme assay (Adapta universal kinase assay), p110 alpha/p85 alpha; details: for IC50: Table 1, lower part, read-out: PI3Kα IC50
T5 construct: purchased Invitrogen
Method: as §1, §2, §3
(§8) The 2× p110 alpha/p85 alpha/PIP2:PS mixture was prepared in 50 mM HEPES pH 7.5, 100 mM NaCl, 0.03% CHAPS, 3 mM mgCl2, 1 mM EGTA. The final 10 μL Kinase Reaction consisted of 0.3-1.5 ng p110 alpha/p85 alpha and 50 μM PIP2:PS in 32.5 mM HEPES pH 7.5, 50 mM NaCl, 0.015% CHAPS, 1.5 mM mgCl2, 0.5 mM EGTA. After the 1 hour Kinase Reaction incubation, 5 μL of Detection Mix was added.
as §4

PI3Kδ (p110δ/p85α) = molecular target: T6, PI3Kδ (p110δ/p85α) (Homo sapiens, UniProt O00329); assay: PI3K biochemical enzyme assay (Adapta universal kinase assay), p110 delta/p85 alpha; details: for IC50: Table 1, lower part, read-out: PI3Kδ IC50
T6 construct: purchased Invitrogen
Method: as §1, §2, §3
as §8, with “p110 delta/p85” for “p110 alpha/p85”, “of 0.35-2.6” for “of 0.3-1.5”, “incubation, […]” for “incubation, 5”
as §4

T1 sequence (P42338 whole entry): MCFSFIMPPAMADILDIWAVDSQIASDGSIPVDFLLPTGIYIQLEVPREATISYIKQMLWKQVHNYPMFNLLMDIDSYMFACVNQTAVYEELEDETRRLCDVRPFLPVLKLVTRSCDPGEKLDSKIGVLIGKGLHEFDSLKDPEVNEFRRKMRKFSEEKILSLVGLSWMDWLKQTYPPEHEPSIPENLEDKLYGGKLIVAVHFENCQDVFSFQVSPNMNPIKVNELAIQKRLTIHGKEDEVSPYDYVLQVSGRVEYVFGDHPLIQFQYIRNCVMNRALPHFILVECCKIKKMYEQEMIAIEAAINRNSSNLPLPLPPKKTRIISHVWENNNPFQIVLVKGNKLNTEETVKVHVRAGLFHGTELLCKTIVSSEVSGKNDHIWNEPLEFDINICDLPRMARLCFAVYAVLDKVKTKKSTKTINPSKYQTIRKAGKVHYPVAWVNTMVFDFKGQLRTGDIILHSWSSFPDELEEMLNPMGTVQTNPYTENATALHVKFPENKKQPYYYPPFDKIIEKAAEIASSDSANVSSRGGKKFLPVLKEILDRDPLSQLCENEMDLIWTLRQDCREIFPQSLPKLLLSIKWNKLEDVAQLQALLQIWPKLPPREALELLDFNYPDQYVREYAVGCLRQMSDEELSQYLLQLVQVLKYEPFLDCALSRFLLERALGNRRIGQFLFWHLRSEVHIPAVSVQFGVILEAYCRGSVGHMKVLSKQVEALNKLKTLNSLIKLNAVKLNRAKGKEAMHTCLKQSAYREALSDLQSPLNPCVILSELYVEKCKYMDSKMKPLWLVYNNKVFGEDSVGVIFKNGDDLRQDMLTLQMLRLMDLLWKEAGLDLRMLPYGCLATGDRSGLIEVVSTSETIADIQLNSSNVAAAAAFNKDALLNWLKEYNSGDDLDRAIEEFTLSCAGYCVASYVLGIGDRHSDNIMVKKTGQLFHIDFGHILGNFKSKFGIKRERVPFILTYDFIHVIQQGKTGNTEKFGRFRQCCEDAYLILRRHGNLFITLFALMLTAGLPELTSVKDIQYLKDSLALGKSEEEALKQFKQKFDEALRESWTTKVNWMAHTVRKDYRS
T1 sequence (P27986 whole entry partner): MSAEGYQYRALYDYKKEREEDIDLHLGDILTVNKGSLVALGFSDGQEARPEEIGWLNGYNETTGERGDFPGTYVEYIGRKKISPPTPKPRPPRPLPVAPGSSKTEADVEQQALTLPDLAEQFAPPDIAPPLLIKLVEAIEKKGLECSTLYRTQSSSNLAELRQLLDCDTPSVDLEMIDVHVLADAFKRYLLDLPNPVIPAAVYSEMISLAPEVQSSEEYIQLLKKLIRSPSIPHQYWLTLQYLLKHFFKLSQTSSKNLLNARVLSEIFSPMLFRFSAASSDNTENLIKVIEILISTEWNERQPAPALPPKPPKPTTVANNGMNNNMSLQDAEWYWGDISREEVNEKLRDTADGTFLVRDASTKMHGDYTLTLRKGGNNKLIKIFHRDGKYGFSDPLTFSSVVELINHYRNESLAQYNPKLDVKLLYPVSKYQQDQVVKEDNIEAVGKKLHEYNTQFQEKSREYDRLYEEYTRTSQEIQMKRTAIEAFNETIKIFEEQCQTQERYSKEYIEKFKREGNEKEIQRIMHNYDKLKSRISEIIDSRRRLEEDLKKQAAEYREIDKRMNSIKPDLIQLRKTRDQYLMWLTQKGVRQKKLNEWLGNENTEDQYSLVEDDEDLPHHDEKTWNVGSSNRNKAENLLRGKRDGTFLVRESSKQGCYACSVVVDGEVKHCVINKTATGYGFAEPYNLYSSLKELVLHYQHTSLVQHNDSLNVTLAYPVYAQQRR

Row | SMILES | inhibition at 10 µM (PI3Kβ (p110β/p85α)) [%] | EC50 (PI3Kα) [µM] | inhibition at 1 µM (PI3Kγ (p110 gamma)) [%] | inhibition at 10 µM (PI3Kγ (p110 gamma)) [%] | EC50 (PI3Kγ) [µM] | inhibition at 10 µM (PI3Kα (p110α/p85α); read-out: PI3Kα % inhib) [%] | inhibition at 0.1 µM (PI3Kδ (p110δ/p85α); 0.1 μM, read-out: PI3Kδ % inhib) [%] | inhibition at 1 µM (PI3Kδ (p110δ/p85α); read-out: PI3Kδ % inhib) [%] | inhibition at 10 µM (PI3Kδ (p110δ/p85α); read-out: PI3Kδ % inhib) [%] | inhibition at 1 µM (PI3Kα (p110α/p85α); 1 μM, read-out: PI3Kα % inhib) [%] | IC50 (PI3Kγ (p110 gamma)) [µM] | IC50 (PI3Kδ (p110δ/p85α)) [µM] | increase in gamma potency compared to analog without amino substituent on the purine ring (PI3Kγ (p110 gamma)) [×] | IC50 (PI3Kβ (p110β/p85α)) [µM] | IC50 (PI3Kα (p110α/p85α)) [µM]
1 | Cc1cccc2nc(C(C)n3cnc4c(N)ncnc43)c(-c3ccccc3)nc12 (stereo not drawn) [Compound Q6, 9-[1-(5-methyl-3-phenylquinoxalin-2-yl)ethyl]-9H-purin-6-amine] | 61 | > 20 | 48 | 89 | > 20 | 32 | 63 | 86 | 100 |  |  |  |  |  | 
2 | Cc1cccc2nc(C(C)Nc3ncnc4[nH]cnc34)c(-c3ccc(F)cc3)nc12 (stereo not drawn) [Compound Q7] | 77 | 15.2 | 61 | 95 | 3.59 | 88 |  | 71 | 100 | 28 |  |  |  |  | 
3 | CCC(Nc1ncnc2[nH]cnc12)c1nc2cccc(C)c2nc1-c1ccccc1 (stereo not drawn) [Compound Q8] | 53 | > 20 | 30 | 83 | > 20 | 50 |  | 58 | 100 |  |  |  |  |  | 
4 | CC(Nc1ncnc2[nH]cnc12)c1nc2ccccc2nc1-c1c(F)cccc1F (stereo not drawn) [Compound Q10] | 30 | > 20 | 12 | 82 | > 20 | 30 |  | 74 | 99 |  |  |  |  |  | 
5 | Cc1ccc(-c2nc3ccccc3nc2C(C)Nc2ncnc3[nH]cnc23)cc1 (stereo not drawn) [Compound Q11] | 76 | > 20 |  | 79 | > 20 | 53 |  | 45 | 99 |  |  |  |  |  | 
6 | Nc1ncnc2c1ncn2Cc1nc2ccccc2nc1-c1ccccc1 [Compound Q13] |  |  |  |  |  |  |  |  |  |  | 46.5 | 1.17 |  |  | 
7 | c1ccc(-c2nc3ccccc3nc2CSc2ncnc3[nH]cnc23)cc1 [Compound Q14] |  |  |  |  |  |  |  |  |  |  | 17.5 | 0.95 |  |  | 
8 | Nc1nc(SCc2nc3ccccc3nc2-c2ccccc2)c2nc[nH]c2n1 [Compound Q15] |  |  |  |  |  |  |  |  |  |  | 2.38 | 0.25 | 8 |  | 
9 | c1ccc(-c2nc3ccccc3nc2CNc2ncnc3[nH]cnc23)cc1 [Compound Q16] |  |  |  |  |  |  |  |  |  |  | 20.5 | 0.19 |  | 14.5 | 51
10 | Nc1nc(NCc2nc3ccccc3nc2-c2ccccc2)c2nc[nH]c2n1 [Compound Q17] |  |  |  |  |  |  |  |  |  |  | 0.692 | 0.075 | 30 | 8.5 | 100
